Measurements as given in PubChem BioAssay AID179 (DTP/NCI, 2004).
Active and inactive are the calls of the source.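 The calls were made as follows: active = compounds giving half or more protection of infected cells from virus-caused growth loss, again on retest; inactive = the rest.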

Tested on: CEM cells HIV-1 protection, formazan growth assay
Assay: NCI AIDS Antiviral Assay
Details: for IC50: measured here: growth of uninfected CEM cells
Outline: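 Human CEM cells, uninfected and HIV-1-infected, received five drug concentrations, and growth was read by soluble formazan assay. Compounds giving at least 50% protection were retested; reproducible 100% protection defined confirmed active.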

COc1cc2c(-c3onc4ccc(OCc5ccccc5)cc34)nccc2c(OC)c1OC
outcome: inactive

CC(C)[Si](OC1=C(C(=O)N(C)c2ccccc2Cl)CCCC1)(C(C)C)C(C)C
EC50: > 200 µM
IC50: 16.6 µM

COc1cc(OC)cc(Oc2nc3cc(F)c(F)cc3nc2-c2ccccc2)c1
EC50: > 200 µM
IC50: > 200 µM

N#CC(C(=O)CCC(=O)Nc1ccc(Cl)c(Cl)c1)c1ccccc1 (stereo not given)
EC50: > 692 µM
IC50: > 692 µM

S=C(SSC(=S)C1CCCC1=NC1CCCCC1)C1CCCC1=NC1CCCCC1 (stereo not given)
EC50: > 200 µM
IC50: 151 µM

C(#C[PH+](c1ccccc1)c1ccccc1)c1ccccc1.C(#C[PH+](c1ccccc1)c1ccccc1)c1ccccc1.C(#C[PH+](c1ccccc1)c1ccccc1)c1ccccc1.[C-]#[O+].[C-]#[O+].[C-]#[O+].[Cr]
EC50: > 0.55 µM
IC50: > 0.55 µM

Cc1cccc(NC(=O)c2cc3cc(N=Nc4ccc(Br)cc4)ccc3oc2=O)c1
outcome: inactive

COc1ccc(/S(C)=N/S(=O)(=O)c2ccc(C)cc2)cc1 (stereo not given)
EC50: > 288 µM
IC50: 263 µM

O=S(=O)(c1ccccc1)C(Br)c1ccccc1 (stereo not given)
EC50: > 158 µM
IC50: > 158 µM

CCC(=O)N1C(=O)C(C)C23c4cc(OC)c(OC)cc4C(=O)N2CCCN13 (stereo not given)
EC50: > 240 µM
IC50: > 240 µM

CCCCC1Sc2cc(OC)cc3c2N(CCN3)C1=O (stereo not given)
EC50: > 200 µM
IC50: 28.2 µM

c1ccc(-c2ccnc3c2ccc2c(-c4ccccc4)ccnc23)cc1
EC50: > 21.9 µM
IC50: 11.5 µM

O=c1ccn(C2SC(CO)CC2F)c(=O)[nH]1 (stereo not given)
EC50: > 25.1 µM
IC50: > 25.1 µM

C1=Cc2nc1c(-c1ccccc1)c1ccc([n-]1)c(-c1ccccc1)c1nc(c(-c3ccncc3)c3ccc([n-]3)c2-c2ccccc2)C=C1.C1=Cc2nc1c(-c1ccccc1)c1ccc([n-]1)c(-c1ccccc1)c1nc(c(-c3ccncc3)c3ccc([n-]3)c2-c2ccccc2)C=C1.C1=Cc2nc1c(-c1ccccc1)c1ccc([n-]1)c(-c1ccccc1)c1nc(c(-c3ccncc3)c3ccc([n-]3)c2-c2ccccc2)C=C1.C1=Cc2nc1c(-c1ccccc1)c1ccc([n-]1)c(-c1ccccc1)c1nc(c(-c3ccncc3)c3ccc([n-]3)c2-c2ccccc2)C=C1.O=S(=O)([O-])C(F)(F)F.[Pt+2].[Zn+2].[Zn+2].[Zn+2].[Zn+2]
EC50: > 25.1 µM
IC50: > 25.1 µM

CC(=O)Nc1ccc(S(=O)(=O)N/N=C/c2ccc(C)cc2)cc1
EC50: > 398 µM
IC50: > 398 µM

Cc1c(C)c(C)c2c(c1C)C/C2=N/O
EC50: > 100 µM
IC50: > 100 µM

Nc1ncnc2c1ncn2C1OC(CSC(F)F)C(O)C1O (stereo not given)
EC50: > 759 µM
IC50: 219 µM

CC(c1ccccc1)N1CC(=O)N([C@H](C)c2ccccc2)C1=O (stereo not given in full)
EC50: > 200 µM
IC50: > 200 µM

CC(C)NCCCNc1c2ccccc2nc2cccc([N+](=O)[O-])c12
EC50: > 0.2 µM
IC50: 0.0316 µM

CN(C)Cc1cc(N=Nc2c(Cl)cccc2Cl)ccc1O
EC50: > 200 µM
IC50: 83.2 µM

O=C(O)Cc1cccc2c(=O)c3cccc([N+](=O)[O-])c3[nH]c12
EC50: > 200 µM
IC50: 102 µM

COc1cccc(/C=N/[N-]C(=O)c2ccncc2)c1[O-].COc1cccc(/C=N/[N-]C(=O)c2ccncc2)c1[O-].[O]=[U](=[O])([OH2+])[OH2+]
EC50: > 214 µM
IC50: 4.9 µM

CCCC(=O)O[C@H]1[C@@H](OC(C)=O)C/C(C)=C\[C@@H]2OC(=O)[C@]3(C)OC23[C@@H](O)C2C3(C)OC3CC(OC(C)=O)[C@@]21C (stereo not given in full)
EC50: > 117 µM
IC50: 32.4 µM

CC[n+]1[b-](C(C)(C)C)n(/N=C/C(C)(C)C)[b-](C(C)(C)C)[n+]1CC
EC50: > 200 µM
IC50: > 200 µM

COc1ccc2c(c1)[n+](=O)c(C(=O)C/C(=N/NC(=O)c1ccccc1O)C(=O)Nc1ccc(Cl)c(C(F)(F)F)c1)c(C)n2[O-]
EC50: > 1.2 µM
IC50: > 1.2 µM

C(=C(Sc1ccccc1)Sc1ccccc1)C(Sc1ccccc1)c1ccccc1 (stereo not given)
EC50: > 200 µM
IC50: > 200 µM

OC(NN=C1CCCC1)(C(F)(F)Cl)C(F)(F)Cl
EC50: > 200 µM
IC50: 170 µM

O=c1c(-c2ccccc2)c(SCCO)n(-c2ccccc2)c(=S)n1-c1ccccc1
EC50: > 200 µM
IC50: > 200 µM

CNC(=O)O/N=C(C)/C(C)=N/OC(=O)NC
outcome: inactive

CSc1c(C#N)c(=O)n(N)c2n[nH]c(C)c12
EC50: > 200 µM
IC50: > 200 µM

Cc1occc1C(=S)Nc1ccc(Cl)c(OCC(=O)OC(C)(C)C)c1
EC50: 12.9 µM
IC50: 28.2 µM

CC(=O)/C(=C/c1ccccc1Cl)C(=O)c1ccccc1
EC50: > 91.2 µM
IC50: 19.1 µM

COc1cc(CC2C(=O)OCC2C(=O)c2ccc3c(c2)OCO3)cc(OC)c1OC (stereo not given)
EC50: > 40.7 µM
IC50: > 40.7 µM

COC(=O)C1ON2C(C1C(=O)OC)C(C)(C)N(O)C2(C)C (stereo not given)
EC50: > 200 µM
IC50: > 200 µM

C=CC(C#CC#CCCCCCCC)O[Si](C)(C)C(C)(C)C (stereo not given)
outcome: inactive

CC(=O)c1sc(-c2nc(C)c(C(=O)/C=C\c3ccc(/C=C\C(=O)c4sc(-c5nc(C)c(C(C)=O)s5)nc4C)cc3)s2)nc1C
EC50: > 28.2 µM
IC50: > 28.2 µM

CN1N=CSC12C(=O)N(c1ccc(Cl)cc1)C(=O)N2c1ccc(Cl)cc1 (stereo not given)
outcome: inactive

Cc1cc(O)c(C(=O)CC2(O)C(=O)Nc3c(Cl)cc(Cl)cc32)c(=O)o1 (stereo not given)
EC50: > 468 µM
IC50: > 468 µM

COc1cc(=O)cc2n(c1=O)CCC2
EC50: > 447 µM
IC50: > 447 µM

OCCN(CCO)c1cc(Cl)c(Cl)cc1Cl
EC50: > 200 µM
IC50: 35.5 µM

Cn1c(COc2ccc(/C=N/Nc3ccnc(N/N=C/c4ccc(OCc5c[n+]6ccccc6n5C)cc4)n3)cc2)c[n+]2ccccc12
EC50: 3.02 µM
IC50: 3.24 µM

CCn1c(SCC(=O)NNC(=S)Nc2ccc(F)cc2)nc2ccccc2c1=O
EC50: > 200 µM
IC50: 129 µM

C/C(=N/NC(=O)c1ccccc1S(N)(=O)=O)C(CN1CCCCC1)C(C1=C(O)C2C=CC=CC2OC1=O)c1ccccc1 (stereo not given)
EC50: > 21.4 µM
IC50: > 21.4 µM

CCOC(=O)c1nc(SC)sc1NC(=O)c1ccccc1N
EC50: > 200 µM
IC50: > 200 µM

COC(=O)/C(=N/O)C(C(=O)C=C(C)C)C(=O)C(=O)Nc1nc2ccc([N+](=O)[O-])cc2s1 (stereo not given)
EC50: > 41.7 µM
IC50: 32.4 µM

CC1=CC(=O)C(=C(C)C)CC1
EC50: > 200 µM
IC50: 129 µM

COc1ccc(CN2C(=O)C(=O)N(C)C2=O)c2ccccc12
EC50: > 200 µM
IC50: 25.7 µM

CO[C@@H]1O[C@H](C(=O)c2ccccc2)[C@H]2OC(C)(C)O[C@@H]12
EC50: > 200 µM
IC50: 45.7 µM

CCCCn1c(=O)c(N=O)c(N)n(CC)c1=O
EC50: > 200 µM
IC50: 174 µM

CCC12OCC(C)(C)N1OC(=O)N2c1ccccc1 (stereo not given)
EC50: > 200 µM
IC50: > 200 µM

N/C(=N/n1c(=S)[nH]c2ccccc2c1=O)Nn1c(=S)[nH]c2ccccc2c1=O
EC50: > 200 µM
IC50: 19.1 µM

COC(=O)[C@H](Cc1c[nH]c2ccccc12)NP(=O)(O)OC[C@H]1O[C@@H](n2cc(C)c(=O)[nH]c2=O)C[C@@H]1N=[N+]=[N-]
EC50: 28.2 µM
IC50: > 200 µM

Nc1ccc2oc3cccnc3c2c1
EC50: > 977 µM
IC50: 372 µM

CC(=O)OCC1OC(n2cc([N+](=O)[O-])c(=O)[nH]c2=O)C(OC(C)=O)C(OC(C)=O)C1OC(C)=O (stereo not given)
EC50: > 513 µM
IC50: > 513 µM

O=C(Nc1cccc(NC(=O)C(=O)C2CCC3=C(Sc4ccccc4N3)C2=O)n1)C(=O)C1CCC2=C(Sc3ccccc3N2)C1=O (stereo not given)
EC50: > 75.9 µM
IC50: 63.1 µM

CC(=O)Nc1ccc(/C=C2/SC(=S)N(/C=C(\c3ccccc3)S(=O)Cc3ccccc3)C2=O)cc1 (stereo not given)
EC50: > 200 µM
IC50: 89.1 µM

CC1(C)NC(C)(C)/C(=N\O)C(=NO)/C1=N/O
EC50: > 200 µM
IC50: > 200 µM

COc1ccccc1NC(=S)N/C=C(\C#N)S(=O)(=O)c1ccc(C)cc1
EC50: > 200 µM
IC50: > 200 µM

CC1CCC/C(=N/NC(N)=O)C12CC2 (stereo not given)
EC50: > 200 µM
IC50: > 200 µM

COc1cccc(NC(=O)CC(=O)NN2C(=O)/C(=C/c3ccc(N(CCC#N)CCC#N)cc3)N=C2c2cc([N+](=O)[O-])ccc2Cl)c1
EC50: > 11 µM
IC50: 7.24 µM

CCCCCCCCCCCC(=O)OCC(C[As](=O)(O)O)OC(=O)CCCCCCCCCCC (stereo not given)
EC50: > 200 µM
IC50: 1.82 µM

O=C1/C=C(/c2ccc(O)cc2)[C@H](O)Cc2ccc(OC3OC(CO)C(O)C(O)C3O)cc2O1 (stereo not given in full) (tested in a mixture with another compound)
EC50: > 251 µM
IC50: > 251 µM

Cc1cn(C2OC(CO)(C(F)(F)F)C(O)C2O)c(=O)[nH]c1=O (stereo not given)
EC50: > 200 µM
IC50: > 200 µM

CC1CCC2C(C(=O)O[C@H]3C4CCO[C@@H](OC5OC(CO)C(O)C(O)C5O)C4[C@@]4(CO)O[C@@H]34)=CO[C@@H](OC3OC(CO)C(O)C(O)C3O)C12 (stereo not given in full)
EC50: > 200 µM
IC50: > 200 µM

COc1ccc(C(=O)O[C@H]2[C@@H]3C=CO[C@@H](OC4OC(CO)C(O)C(O)C4O)[C@@H]3[C@@]3(CO)O[C@@H]23)cc1O (stereo not given in full)
outcome: inactive

CN1CC2CN(Cc3ccccc3)CCN2c2cccnc21 (stereo not given)
EC50: > 200 µM
IC50: 81.3 µM

CCOC(=O)C(=Cn1c(=S)[nH]c2cc(C)ccc21)C(=O)OCC
EC50: > 200 µM
IC50: > 200 µM

[Li+]
outcome: inactive

OCCCCCNc1ccnc2cc(Cl)ccc12
EC50: > 832 µM
IC50: 47.9 µM

O=C([CH-]C(=O)c1ccccc1)c1ccccc1.[CH-]1CCCCC1.[CH-]1CCCCC1.[CH-]1CCCCC1.[Sn+4]
EC50: > 60.3 µM

C=C1[C@H](O)[C@@]2(C(=O)N1OC)/C(=C/CC)C=CC(=O)C2O (stereo not given in full)
EC50: > 891 µM
IC50: 331 µM

COc1cc(C(F)(F)F)nc(SC)n1
EC50: > 200 µM
IC50: > 200 µM

N#CCCN(CCC#N)CCN(CCN(CCC#N)CCC#N)CCN(CCC#N)CCC#N
EC50: > 200 µM
IC50: > 200 µM

CCN1C[C@]2(COC)CCC(OC)C34[C@@H]5C[C@@H]6C(O)[C@@H]5[C@](O)(C[C@@H]6OC)[C@@H](C[C@@H]32)[C@H]14 (stereo not given in full)
outcome: inactive

COc1cccc(CC2Cc3ccccc3CC(=O)N2)c1 (stereo not given)
EC50: > 200 µM
IC50: 38 µM

CCOC(=O)C(CO)c1nc2c([nH]c1=O)c(=O)n(C)c(=O)n2C (stereo not given)
EC50: > 200 µM
IC50: > 200 µM

O=C(Cn1c2c(c3ccccc31)CCCC2)N1CCOCC1
EC50: > 200 µM
IC50: > 200 µM
